These results are taken from paper PMC3914206.

Experiment [1] has as its target T1, panel of 442 kinases (Homo sapiens, UniProt Q9NRH2).
T1 construct: purchased KINOMEscan
T1 sequence (Q9NRH2 1-765): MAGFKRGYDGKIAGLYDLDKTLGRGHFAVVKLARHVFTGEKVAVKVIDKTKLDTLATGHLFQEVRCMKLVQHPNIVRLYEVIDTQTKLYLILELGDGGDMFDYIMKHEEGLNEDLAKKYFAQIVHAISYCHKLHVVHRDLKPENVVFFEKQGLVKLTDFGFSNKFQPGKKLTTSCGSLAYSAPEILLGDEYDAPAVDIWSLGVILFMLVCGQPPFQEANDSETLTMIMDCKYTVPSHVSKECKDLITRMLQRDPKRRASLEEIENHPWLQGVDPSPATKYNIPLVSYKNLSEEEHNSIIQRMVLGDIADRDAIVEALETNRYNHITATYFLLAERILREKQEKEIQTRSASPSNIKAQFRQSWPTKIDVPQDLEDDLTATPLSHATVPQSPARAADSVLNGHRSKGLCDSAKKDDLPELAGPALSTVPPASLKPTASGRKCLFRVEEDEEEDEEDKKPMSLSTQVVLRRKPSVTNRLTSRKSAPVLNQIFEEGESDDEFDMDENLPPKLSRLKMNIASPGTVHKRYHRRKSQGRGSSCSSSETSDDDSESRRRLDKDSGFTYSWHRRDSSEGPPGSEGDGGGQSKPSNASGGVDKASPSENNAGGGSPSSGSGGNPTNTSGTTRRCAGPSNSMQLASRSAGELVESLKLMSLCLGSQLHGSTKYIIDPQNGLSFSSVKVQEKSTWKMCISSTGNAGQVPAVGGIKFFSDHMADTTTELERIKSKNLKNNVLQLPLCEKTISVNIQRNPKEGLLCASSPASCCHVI
In kind it is binding. Conditions: kinase SNRK; compound concentration 10 µM. An excerpt:
(§1) We assessed the selectivity of members of this scaffold using the KINOMEscan methodology across a near comprehensive panel of 442 kinases [[18,27]].

Experiment [2] concerns the target T2, panel of 442 kinases (Homo sapiens, UniProt Q8TD08).
T2 construct: purchased KINOMEscan
T2 sequence (Q8TD08 1-544): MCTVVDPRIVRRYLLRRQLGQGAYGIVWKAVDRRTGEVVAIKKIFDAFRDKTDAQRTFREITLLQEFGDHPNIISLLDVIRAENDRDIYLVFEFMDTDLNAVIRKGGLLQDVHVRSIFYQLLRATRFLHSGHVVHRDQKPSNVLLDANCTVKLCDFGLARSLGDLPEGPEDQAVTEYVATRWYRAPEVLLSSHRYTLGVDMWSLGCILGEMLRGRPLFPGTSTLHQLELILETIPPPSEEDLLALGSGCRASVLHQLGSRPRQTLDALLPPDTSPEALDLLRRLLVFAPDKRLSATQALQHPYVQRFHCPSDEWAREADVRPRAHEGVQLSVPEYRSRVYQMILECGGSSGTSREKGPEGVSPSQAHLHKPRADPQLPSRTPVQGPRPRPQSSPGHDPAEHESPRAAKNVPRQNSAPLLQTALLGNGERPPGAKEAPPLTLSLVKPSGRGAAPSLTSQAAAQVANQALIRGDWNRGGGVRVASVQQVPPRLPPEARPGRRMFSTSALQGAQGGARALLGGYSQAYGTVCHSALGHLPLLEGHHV
In kind it is binding. Conditions: Compound Concentration 10 µM.
From the text: as §1

On to `CCOc1cc(C(=O)N2CCC(N3CCN(C)CC3)CC2)ccc1Nc1ncc2c(n1)N(C1CCCC1)c1ccccc1C(=O)N2C` [Compound 26], for which, at panel of 442 kinases [1], the “% Ctrl, SNRK” value worked out at 52 % Ctrl. On panel of 442 kinases [2], the “KINOMEscan: ERK8” value came to 100.

For `COc1cc(C(=O)N2CCC(N3CCN(C)CC3)CC2)ccc1Nc1ncc2c(n1)N(C)c1ccccc1C(=O)N2C` [15 (LRRK2-IN-1)], at panel of 442 kinases [1], the “% Ctrl, SNRK” value was 94 % Ctrl. For the same compound, the “KINOMEscan: ERK8” value on panel of 442 kinases [2] was 100.

`COc1cc(C(=O)N2CCC(N3CCN(C)CC3)CC2)ccc1Nc1ncc2c(n1)N(C1CCCC1)c1ccccc1C(=O)N2C` [Compound 25, 11-cyclopentyl-2-((2-methoxy-4-(4-(4-methylpiperazin-1-yl)piperidine-1-carbonyl)phenyl)amino)-5-methyl-5H-benzo[e]pyrimido[5,4-b][1,4]diazepin-6(11H)-one]: the “% Ctrl, SNRK” value at panel of 442 kinases [1] came to 72 % Ctrl. In addition, the “KINOMEscan: ERK8” value at panel of 442 kinases [2] is listed as 99.
